Reference: patent US7465798B2, “Methods and compositions for selectin inhibition” (Wyeth, priority 2003, dated 2008)

Molecular target: T1, human P-selectin (Homo sapiens, UniProt P16109)
T1 construct: truncated form of human P-selectin comprised of the lectin and EGF domains (P-LE)
T1 sequence (P16109 42-198): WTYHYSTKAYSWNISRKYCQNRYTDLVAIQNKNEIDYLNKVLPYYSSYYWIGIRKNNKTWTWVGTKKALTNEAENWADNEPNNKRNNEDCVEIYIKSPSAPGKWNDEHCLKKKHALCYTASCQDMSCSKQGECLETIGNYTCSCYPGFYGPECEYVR
Experiment: Biacore inhibition of P-selectin binding to PSGL-1 (P-LE to immobilized SGP-3)
Details: at 1 mM
Protocol: Compounds of the invention can be assayed for selectin inhibitory activity using any of the procedures known in the art. One convenient procedure is the determination of IC50 values for inhibition of P-selectin binding to P-selectin glycoprotein ligand-1 (PSGL-1) using Biacore.
The Biacore 3000 is an instrument that uses surface plasmon resonance to detect binding of a solution phase analyte to an immobilized ligand on a sensor chip surface. The analyte sample is injected under flow using a microfluidic system. Binding of analyte to ligand causes a change in the angle of refracted light at the surface of the sensor chip, measured by the Biacore instrument in resonance units (RUs).
SGP-3 is a purified sulfoglycopeptide form of human PSGL-1 that contains the P-selectin binding determinants (See Somers et al., 2000, Cell 103, 467-479). SGP-3 was biotinylated via amine chemistry at a unique C-terminal lysine residue and immobilized on streptavidin-coated SA sensor chip. […]
The Biacore assay measures the signal in RU produced by binding of P-LE to SGP-3 in the presence and absence of inhibitors. Percent inhibition of binding is calculated by dividing the inhibited signal by the uninhibited signal subtracting this value from one then multiplying by one hundred. […] The data from this titration are plotted, RU values vs. concentration, and the IC50 is determined by extrapolation from the plot. […]

percent inhibition of binding (positive control): 50%
Compound: CC1(C)[C@@H](O[C@H]2O[C@H](C(=O)O)[C@@H](O)[C@H](O)[C@H]2O[C@@H]2O[C@H](C(=O)O)[C@@H](O)[C@H](O)[C@H]2O)CC[C@]2(C)[C@H]3C(=O)C=C4[C@@H]5C[C@@](C)(C(=O)O)CC[C@]5(C)CC[C@@]4(C)[C@]3(C)CC[C@@H]12 [Glycerrhizzin]
